Values quoted from earlier work as cited in patent US20240024253A1, “Continuous Drug Delivery Systems and Methods” (Pike Therapeutics Inc., priority 2022, published 2024).

What was measured:
CB2 cannabinoid receptor = CB2 cannabinoid receptor (Homo sapiens, UniProt P34972); conditions: CB2 versus CB1
CB1 cannabinoid receptor = conditions: parameter not named at the place

Sequence of CB2 cannabinoid receptor (P34972 whole entry): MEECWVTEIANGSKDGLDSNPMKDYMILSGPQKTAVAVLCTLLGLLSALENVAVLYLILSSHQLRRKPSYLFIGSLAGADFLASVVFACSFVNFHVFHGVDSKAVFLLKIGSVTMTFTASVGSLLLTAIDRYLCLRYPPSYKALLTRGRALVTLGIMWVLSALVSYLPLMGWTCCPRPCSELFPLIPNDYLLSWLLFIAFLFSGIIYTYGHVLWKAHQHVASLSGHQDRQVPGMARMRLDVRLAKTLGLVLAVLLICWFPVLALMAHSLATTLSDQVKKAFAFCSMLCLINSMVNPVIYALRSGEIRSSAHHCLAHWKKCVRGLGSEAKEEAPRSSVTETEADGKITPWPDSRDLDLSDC

SMILES: CCCCCCC(C)(C)c1cc(O)c2c(c1)oc(=O)c1ccc(OC)cc12 [AM-1710]
- selectivity / binding strength CB2 over CB1 (CB2 cannabinoid receptor): 54 ×

SMILES: CCCn1cc(C(=O)c2ccc(C)c3ccccc23)c2ccccc21 [JWH-120]
- selectivity for CB2 receptor (CB2 cannabinoid receptor): 173 fold

SMILES: CCCn1c(C)c(C(=O)c2ccc(C)c3ccccc23)c2ccccc21 [JWH-148]
- selectivity for CB2 over the CB1 subtype (CB2 cannabinoid receptor): more than 8 times

SMILES: CCCCCn1cc(Cc2cccc3ccccc23)c2ccccc21 [JWH-175, (1-pentylindol-3-yl)naphthalen-1-ylmethane]
- Ki (CB1 cannabinoid receptor): 22 nM

SMILES: CCCCCCC(C)(C)c1cc(OC)c2c(c1)OC(C)(C)C1CCC(O)CC21 (stereo not drawn) [JWH-350, 11-nor-1-methoxy-3-(1′,1′-dimethylheptyl)-9α-hydroxyhexahydrocannabinol]
- selectivity for CB2 receptor (CB2 cannabinoid receptor): 33 fold
